One experiment deals with MPTP-monkey model. Briefly: chronic MPTP monkey model of Parkinson's disease. The class given is in vivo, rhesus monkeys (Macaca fascicularis). On the set-up: key to Slowing of the development of Parkinsonism: 0 = No slowing of the development of parkinsonism; + = Statistically significant delay in the attainment of Score 8. Conditions: for Symptomatology on the last 3 days: MPTP only group = 100%.

In experiment [1] the target is T1, human recombinant 5-HT1A receptors (Homo sapiens, UniProt P08908).
T1 sequence (P08908 1-422): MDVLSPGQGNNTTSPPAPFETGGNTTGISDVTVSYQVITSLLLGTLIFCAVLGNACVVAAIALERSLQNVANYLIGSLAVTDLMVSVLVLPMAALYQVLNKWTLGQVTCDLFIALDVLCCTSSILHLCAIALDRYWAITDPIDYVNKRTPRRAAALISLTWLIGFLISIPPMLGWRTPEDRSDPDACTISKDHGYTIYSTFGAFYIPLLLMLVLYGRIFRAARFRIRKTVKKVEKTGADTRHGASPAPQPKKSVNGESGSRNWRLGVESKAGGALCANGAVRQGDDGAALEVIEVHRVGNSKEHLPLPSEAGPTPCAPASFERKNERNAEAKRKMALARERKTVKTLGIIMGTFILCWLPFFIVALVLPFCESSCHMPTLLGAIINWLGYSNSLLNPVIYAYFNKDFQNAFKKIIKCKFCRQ
Nature of the experiment: GTP gamma[S-35] binding, agonistic action on human recombinant 5-HT1A receptors. Particulars: for pEC50: GTP gamma[S-35] binding, human recombinant 5-HT1A receptors. The class given is biochemical. On the procedure:
Determination of the Avonistic action on Human Recombinant 5-HT1A Receptors
Signal transduction studies were carried out on human recombinant 5-HT1A receptors using the guanosine 5′-O-(3-[S-35]thio)-triphosphate (GTP gamma[S-35]) binding technique (modified according to Elliott and Reynolds Europ J. Pharmacol 1999, 386, 313-315 and Sim et al. J. Neurosci 1996, 16, 8057-8066).

SMILES strings stand for the structures. pEC50: −log10 of the molar value. Where a name gives a salt, the structure may show the parent alone.

What is called pEC50 is the negative decadic logarithm of the EC50, by convention in mol/L. Take `CC(C)Oc1cccc2c1O[C@@H](CNCCCCN1C(=O)c3ccccc3S1(=O)=O)CC2` [Example 11, 2-[4-({[(2R)-8-isopropoxy-chroman-2-yl]methyl}amino)butyl]-1,2-benzisothiazol-3(2H)-one 1,1-dioxide hydrochloride]: in the experiment with MPTP-monkey model (1 mg/kg p.o. bid), the “neuroprotective activity after oral administration” value is reported as “slowed the development of the parkinsonism symptoms” and the “reduction of the degree of severity of the symptoms (symptomatic action) compared with control” value is listed as 22%. In the experiment on MPTP-monkey model (MPTP 0.2 mg/kg i.v. daily + 1.0 mg/kg p.o. bid), the “Slowing of the development of Parkinsonism” value was “+”. In addition, the “Symptomatology on the last 3 days” value with MPTP-monkey model (MPTP + 1.0 mg/kg p.o. bid) worked out at 78%. Further, the “potency relative to repinotan hydrochloride” value in experiment [1] (5-HT1A agonism, from EC50 values) is recorded as “approximately twice”. In experiment [1], the pEC50 was 9.72.

Take `Cl.O=C1c2ccccc2S(=O)(=O)N1CCCCNC[C@H]1CCc2ccccc2O1` [Repinotan hydrochloride, 2-[4-({[(2R)-chroman-2-yl]methyl}amino)butyl]-1,2-benzisothiazol-3(2H)-one 1,1-dioxide hydrochloride, reference compound]: in the experiment with MPTP-monkey model (2 mg/kg p.o. bid), the “neuroprotective activity after oral administration” value is given as “slowed the development of the parkinsonism symptoms” and the symptomatic action result is recorded as “not observed”. In the experiment on MPTP-monkey model (MPTP 0.2 mg/kg i.v. daily + 2.0 mg/kg p.o. bid), the “Slowing of the development of Parkinsonism” value was “+”. Moreover, in the experiment with MPTP-monkey model (MPTP + 2.0 mg/kg p.o. bid), the “Symptomatology on the last 3 days” value turned out to be 100%. In addition, the pEC50 in experiment [1] was 9.29.

(Values after patent US20020177616A1, “Use of chromans” (priority 2001, published 2002).)
